Experimental data from patent publication US20210308173A1, “PHARMACEUTICAL COMPOSITION COMPRISING CYCLODEXTRIN COMPLEXES OF ANETHOLE TRITHIONE OR DERIVATIVES THEREOF” (priority 2018, published 2021).
Converted amounts (≈) assume the structure as drawn.

Tests used:
[1] = background statement; cited from earlier work
[2] = Cyclodextrin solubilization screening of AOL; type: physicochemical; conditions: for CD/AOL molar ratio RM / CD/AOL weight ratio Rm: 25° C.; for solubility at 3 h / solubility at 20 h: 25 °C, thermodynamic from solid
Procedure: This assay evaluated the potential of different cyclodextrins to solubilize AOL. A solubilization screening is carried out with the four cyclodextrins (CD) selected from α-CD, γ-CD, HP-β-CD and SBE-β-CD.
Aqueous solutions containing 100 mM of cyclodextrin are prepared in pure water. An excess of AOL (approximately 5 mg/mL) is suspended in 2 mL of each of these cyclodextrin solutions. Each duplicate sample is shaken at 25° C. for 3 hours and 20 hours (vortex to 1400 rpm). Each sample is centrifuged (12,500 g) then filtered through a 0.45 μm membrane. The solubility of the AOL is quantified by HPLC as previously described (Example 2).

[3] = Co-solvent addition: AOL solubility; type: physicochemical; conditions: for solubility at 4 h: aqueous HP-β-CD solution, aqueous with cosolvent or surfactant or cyclodextrin, thermodynamic from solid
Procedure: SBE-β-CD compatible excipients, namely polyethylene glycol and polysorbate (Tween), were evaluated for their AOL aqueous solubilizing power. Screening was carried out in same conditions as that of solubilization screening by cyclodextrins (see Example 3).
Briefly, 20% (w/w) solutions of each excipient were prepared. An excess of AOL was added and the solutions were analyzed by HPLC after 4 hours of stirring.
The effect of the combination of SBE-β-CD and Tween 80 was measured in a comparative assay by solubilizing AOL in: (A) Tween 80, 10% (w/w); (B) SBE-β-CD 10% (w/w) (C) Tween 80 and SBE-β-CD 10% (w/w) each; (D) Tween 80 20% (w/w) (E) SBE-β-CD 20% (w/w); and (F) Tween 80 and SBE-β-CD 20% (w/w) each.
Further assays, resumed in Tables 7 and 8, confirmed that Tween 80/SBE-β-CD is a promising excipient mixture for the solubilization of AOL.

COc1ccc(-c2cc(=S)ss2)cc1 [AOL, 5-(4-methoxyphenyl)-3H-1,2-dithiole-3-thione]
intrinsic aqueous solubility [1]: less than 0.3 mg/L | CD/AOL molar ratio RM ([2]; HP-β-CD 100 mM, stirring 3 h): 218 | CD/AOL weight ratio Rm ([2]; HP-β-CD 100 mM, stirring 3 h): 1270 | CD/AOL molar ratio RM ([2]; HP-β-CD 100 mM, stirring 20 h): 252 | CD/AOL weight ratio Rm ([2]; HP-β-CD 100 mM, stirring 20 h): 1465 | CD/AOL molar ratio RM ([2]; SBE-β-CD 100 mM, stirring 3 h): 169 | CD/AOL weight ratio Rm ([2]; SBE-β-CD 100 mM, stirring 3 h): 1575 | CD/AOL molar ratio RM ([2]; SBE-β-CD 100 mM, stirring 20 h): 150 | CD/AOL weight ratio Rm ([2]; SBE-β-CD 100 mM, stirring 20 h): 1395 | solubility at 3 h ([2]; aqueous cyclodextrin solution, aqueous with cosolvent or surfactant or cyclodextrin, HP-β-CD 100 mM, stirring 3 h): 110 µg/mL (≈ 458 µM) | solubility at 20 h ([2]; aqueous cyclodextrin solution, aqueous with cosolvent or surfactant or cyclodextrin, HP-β-CD 100 mM, stirring 20 h): 95.5 µg/mL (≈ 397 µM) | solubility at 3 h ([2]; aqueous cyclodextrin solution, aqueous with cosolvent or surfactant or cyclodextrin, SBE-β-CD 100 mM, stirring 3 h): 142 µg/mL (≈ 592 µM) | solubility at 20 h ([2]; aqueous cyclodextrin solution, aqueous with cosolvent or surfactant or cyclodextrin, SBE-β-CD 100 mM, stirring 20 h): 161 µg/mL (≈ 669 µM) | solubility at 3 h ([2]; aqueous cyclodextrin solution, aqueous with cosolvent or surfactant or cyclodextrin, α-CD 100 mM, stirring 3 h): 8.83 µg/mL (≈ 36.7 µM) | solubility at 20 h ([2]; aqueous cyclodextrin solution, aqueous with cosolvent or surfactant or cyclodextrin, α-CD 100 mM, stirring 20 h): 13.5 µg/mL (≈ 56.2 µM) | solubility at 3 h ([2]; aqueous cyclodextrin solution, aqueous with cosolvent or surfactant or cyclodextrin, γ-CD 100 mM, stirring 3 h): 2.86 µg/mL (≈ 11.9 µM) | solubility at 20 h ([2]; aqueous cyclodextrin solution, aqueous with cosolvent or surfactant or cyclodextrin, γ-CD 100 mM, stirring 20 h): 1.67 µg/mL (≈ 6.95 µM) | solubility at 3 h ([2]; water, None-H2O, stirring 3 h): 0.22 µg/mL (≈ 0.915 µM) | solubility at 20 h ([2]; water, None-H2O, stirring 20 h): 0.16 µg/mL (≈ 0.666 µM) | CD/AOL molar ratio RM ([2]; α-CD 100 mM, stirring 3 h): 2721 | CD/AOL weight ratio Rm ([2]; α-CD 100 mM, stirring 3 h): 11010 | CD/AOL molar ratio RM ([2]; α-CD 100 mM, stirring 20 h): 1779 | CD/AOL weight ratio Rm ([2]; α-CD 100 mM, stirring 20 h): 7198 | CD/AOL molar ratio RM ([2]; γ-CD 100 mM, stirring 3 h): 8399 | CD/AOL weight ratio Rm ([2]; γ-CD 100 mM, stirring 3 h): 45316 | CD/AOL molar ratio RM ([2]; γ-CD 100 mM, stirring 20 h): 14405 | CD/AOL weight ratio Rm ([2]; γ-CD 100 mM, stirring 20 h): 77723 | chemical stability on storage ([3]; Tween 80 at 20% (w/w) aqueous media): chemical stability issues | solubility at 4 h ([3]; HP-β-CD 20% (w/w), Cremophor 10% (w/w)): 545 µg/mL | solubility at 4 h ([3]; HP-β-CD 20% (w/w), Cremophor 20% (w/w)): 814 µg/mL | solubility at 4 h ([3]; HP-β-CD 20% (w/w), PVP 12PF 0.5% (w/w)): 296 µg/mL | solubility at 4 h ([3]; HP-β-CD 20% (w/w), PVP 12PF 2.0% (w/w)): 291 µg/mL | solubility at 4 h ([3]; HP-β-CD 20% (w/w), Tween 80 2% (w/w)): 329 µg/mL | solubility at 4 h ([3]; HP-β-CD 20% (w/w), Tween 80 10% (w/w)): 396 µg/mL | solubility at 4 h ([3]; HP-β-CD 20% (w/w), Tween 80 20% (w/w)): 660 µg/mL | solubility at 4 h ([3]; HP-β-CD 20% (w/w), co-solvent 0% (w/w)): 283 µg/mL | solubility at 4 h ([3]; HP-β-CD 30% (w/w), Cremophor 10% (w/w)): 642 µg/mL | solubility at 4 h ([3]; HP-β-CD 30% (w/w), PVP 12PF 0.5% (w/w)): 532 µg/mL | solubility at 4 h ([3]; HP-β-CD 30% (w/w), PVP 12PF 2.0% (w/w)): 517 µg/mL | solubility at 4 h ([3]; HP-β-CD 30% (w/w), Tween 80 2% (w/w)): 426 µg/mL | solubility at 4 h ([3]; HP-β-CD 30% (w/w), Tween 80 10% (w/w)): 439 µg/mL | solubility at 4 h ([3]; HP-β-CD 30% (w/w), Tween 80 20% (w/w)): 1680 µg/mL | solubility at 4 h ([3]; HP-β-CD 30% (w/w), co-solvent 0% (w/w)): 540 µg/mL
